Laboratory results reported in patent US5125099A, “Obtaining heteropolysaccharide-producing microorganism and the microorganism agrobacterium radiobacter NCIB 40018” (Shell Internationale Research Maatschappij B.V., priority 1988, dated 1992).
“Also recorded” adds a separate entry of the source.

Key:
GBP1 = test: Effect of unlabelled glucose analogues on binding of [14C]glucose to GBP1, equilibrium dialysis; design: species or system Agrobacterium radiobacter; settings: for [14C]glucose bound GBP1: 0.5 nmol pure protein, 3 nmol [14C]glucose plus 120 nmol unlabelled analogue, 30 h, 4° C.; for Effect on binding of glucose to GBP1 (in words): competition with [14C]glucose in vitro
Description: (§1) The capacity of glucose analogues to reduce the extent of binding of D-[U-^14 C]glucose to pure proteins was determined by modifying the assay procedure as follows. One chamber of each cell contained 0.5 nmol pure protein in 0.3 ml bis-Tris, pH 6.8, and the other chamber was loaded with 0.3 ml of buffer containing 3 nmol D-[U-^14 C]glucose [85 mCi mmol^-1 (3.2 GBq mmol )] plus 120 nmol of an unlabelled glucose analogue. The quantity of [^14 C]glucose that bound to the proteins in the presence and absence of unlabelled glucose analogues was determined after 30 h incubation.

GBP2 = test: Effect of unlabelled glucose analogues on binding of [14C]glucose to GBP2, equilibrium dialysis; design: species or system Agrobacterium radiobacter; settings: for [14C]glucose bound GBP2: 0.5 nmol pure protein, 3 nmol [14C]glucose plus 120 nmol unlabelled analogue, 30 h, 4° C.; for Effect on binding of glucose to GBP2 (in words): competition with [14C]glucose in vitro
Description: as §1

[1] = tested on: whole cells of A. radiobacter; test: [14C]glucose uptake by whole cells grown under glucose limitation; format: cell-based, Agrobacterium radiobacter NCIB 11883; settings: unlabelled analogue at 40:1 molar excess, glucose-limited cells
Description: Organism and growth conditions. Agrobacterium radiobacter NCIB 11883 was grown at 30° C. in continuous culture (D=0.045 h^-1) under glucose limitation using a chemically defined medium (Linton et al., 1987) supplemented with glucose (4 gl^-1), ammonium sulfate (3 gl^-1) and nitrilotriacetic acid (0.142 gl^-1). The organism was grown in an LH Series 500 chemostat of 2 l working volume at a steady-state biomass density of 2.1 g dry wt 1^-1.
Measurement of glucose uptake. Rates of glucose uptake were determined by measuring the incorporation of D-[U-^14 C]glucose into whole cells over a period of 60 s. Assays were carried out in an open-topped Rank oxygen electrode vessel containing 1 ml 20 mM HEPES/KOH buffer, pH 7.0, and 1 mg dry wt cells. The contents of the vessel were maintained at 30° C. and mixed continuously using a magnetic stirrer. Assays were started by adding D-[U-^14 C]glucose [2 mCi mmol^-1 (74 MBq mmol^-1; 0.5 uCi (18.5 KBl)] to give a final concentration of 250 uM. Samples (50 ul) of the reaction mixture were withdrawn at 15 s intervals and the cells were collected on nitrocellulose filters of 0.45 uM pore size (2.5 cm dia.; Sartorius) by means of a manifold connected to a vacuum line. The filters were washed immediately using 3 ml 20 mM HEPES, pH 7.0, dried under an infra-red lamp and then immersed in 3 ml of Fisofluor 3 scintillant (Fisons Ltd.). The extent of incorporation of [^14 C]glucose into the cells was determined by counting the radioactivity on the filters using a Hewlett Packard Tri-Carb liquid scintillation counter (80-85% efficiency).
In order to measure glucose uptake rates at low concentrations of substrate (1-5 uM) the cell density was reduced to 0.01 mg ml^-1, the specific activity of the [^14 C]glucose was increased to 84 mCi mmol^-1 (3.2 Gbq mmol^-1) and the rate of incorporation of ^14 C-label into cells was measured over a period of 35 s.
The substrate specificity of the transport system was investigated by determining the extent to which unlabelled glucose analogues (10 mM) reduced the rate of uptake of [^14 C]glucose (250 uM). Cell suspensions were incubated with analogues for 5 s prior to addition of [^14 C]glucose.

[2] = tested on: A. radiobacter strain AR18; test: Effect of glucose analogues on [14C]glucose uptake by strain AR18 grown under glucose limitation; format: cell-based, Agrobacterium radiobacter; settings: for activity at 10000 µM: Agrobacterium radiobacter, AR18, pH 7, unlabelled sugars 10 mM, [14C]glucose 250M, glucose-limited culture D = 0.045 h^-1, control rate 72 nmol min^-1 (mg dry wt)^-1
Description: (§2) Measurement of glucose uptake. […] Assays were carried out in an open-topped Rank oxygen electrode vessel containing 1 ml 20 mM HEPES/KOH buffer, pH 7.0, and 1 mg dry wt cells. The contents of the vessel were maintained at 30° C. and mixed continuously using a magnetic stirrer. […] Samples (50 ul) of the reaction mixture were withdrawn at 15 s intervals and the cells were collected on nitrocellulose filters of 0.45 uM pore size (2.5 cm dia.; Sartorius) by means of a manifold connected to a vacuum line. The filters were washed immediately using 3 ml 20 mM HEPES, pH 7.0, dried under an infra-red lamp and then immersed in 3 ml of Fisofluor 3 scintillant (Fisons Ltd.).

[3] = tested on: A. radiobacter strain AR9; test: Effect of glucose analogues on [14C]glucose uptake by strain AR9 grown under glucose limitation; format: cell-based, Agrobacterium radiobacter; settings: for activity at 10000 µM: Agrobacterium radiobacter, AR9, pH 7, unlabelled sugars 10 mM, [14C]glucose 250M, glucose-limited culture D = 0.045 h^-1, control rate 63 nmol min^-1 (mg dry wt)^-1
Description: as §2

[4] = tested on: A. radiobacter strain AR18; test: [14C]glucose uptake by strain AR18 grown under ammonia limitation; format: cell-based; settings: Agrobacterium radiobacter, AR18, pH 7; ammonia-limited growth, forty-fold molar excess over [14C]glucose; read-out: Reduction of rate of glucose uptake by strain AR18
Description: (§3) Measurement of glucose uptake. Rates of glucose uptake were determined by measuring the incorporation of D-[U-^14 C]glucose into whole cells over a period of 60 s. Assays were carried out in an open-topped Rank oxygen electrode vessel containing 1 ml 20 mM HEPES/KOH buffer, pH 7.0, and 1 mg dry wt cells. The contents of the vessel were maintained at 30° C. and mixed continuously using a magnetic stirrer. Assays were started by adding D-[U-^14 C]glucose [2 mCi mmol^-1 (74 MBq mmol^-1 ; 0.5 uCi (18.5 KBl)] to give a final concentration of 250 uM. Samples (50 ul) of the reaction mixture were withdrawn at 15 s intervals and the cells were collected on nitrocellulose filters of 0.45 uM pore size (2.5 cm dia.; Sartorius) by means of a manifold connected to a vacuum line. The filters were washed immediately using 3 ml 20 mM HEPES, pH 7.0, dried under an infra-red lamp and then immersed in 3 ml of Fisofluor 3 scintillant (Fisons Ltd.). The extent of incorporation of [^14 C]glucose into the cells was determined by counting the radioactivity on the filters using a Hewlett Packard Tri-Carb liquid scintillation counter (80-85% efficiency). Glucose uptake rates were measured in triplicate for each batch of cells and the standard errors never exceeded 10% of the mean values. […]

[5] = tested on: A. radiobacter strain AR9; test: [14C]glucose uptake by strain AR9 grown under ammonia limitation; format: cell-based; settings: Agrobacterium radiobacter, AR9, pH 7; ammonia-limited growth, forty-fold molar excess over [14C]glucose; read-out: Reduction of rate of glucose uptake by strain AR9
Description: as §3

[6] = glucose-limited culture, unlabelled sugar 10 mM

Row | SMILES | [14C]glucose bound GBP1 (GBP1) [% control value] | Effect on binding of glucose to GBP1 (in words) (GBP1) | Effect on binding of glucose to GBP1 (in words) (GBP1; listed as 2-Deoxy-D-glucose) | [14C]glucose bound GBP2 (GBP2) [% control value] | Effect on binding of glucose to GBP2 (in words) (GBP2) | Effect on binding of glucose to GBP2 (in words) (GBP2; listed as 2-Deoxy-D-glucose) | Effect on rate of [14C]glucose uptake by whole cells (in words) [1] | activity at 10000 µM [2] [%] | Effect on rate of glucose uptake by strain AR18 (in words) [2, 6] | activity at 10000 µM [3] [%] | Effect on rate of glucose uptake by strain AR9 (in words) [3, 6] | Effect on binding of glucose to GBP1 (in words) (GBP1; listed as D-Galactose) | Effect on binding of glucose to GBP2 (in words) (GBP2; listed as D-Galactose) | inhibition at 10000 µM [4] [%] | inhibition at 10000 µM [5] [%]
1 | O=CC[C@@H](O)[C@H](O)[C@H](O)CO [2-deoxy-D-glucose] | 96 | did not affect | had no effect | 98 | did not affect | had no effect | none of these unlabelled analogues appreciably reduced; also recorded: failed to reduce significantly | 93 | reduced the rate of glucose uptake to a relatively small extent | 71 | reduced the rate of glucose uptake to a relatively small extent |  |  |  | 
2 | CO[C@H]1[C@H](O)[C@@H](CO)OC(O)[C@@H]1O (stereo partly drawn) [3-O-methyl-D-glucose] | 100 | did not affect |  | 103 | did not affect |  | none of these unlabelled analogues appreciably reduced; also recorded: failed to reduce significantly | 111 |  | 99 |  |  |  |  | 
3 | OC1O[C@H](CCl)[C@@H](O)[C@H](O)[C@H]1O (stereo partly drawn) [6-chloro-6-deoxy-D-glucose] | 0 | variably decreased; also recorded: significantly reduced |  | 60 | variably decreased; also recorded: significantly reduced |  |  | 8 |  | 33 |  |  |  |  | 
4 | C[C@@H](O)[C@@H](O)[C@H](O)[C@@H](O)C=O [6-deoxy-D-glucose] | 51 | variably decreased; also recorded: significantly reduced |  | 0 | variably decreased; also recorded: significantly reduced |  |  | 27 |  | 11 |  |  |  |  | 
5 | C[C@@H](O)[C@H](O)[C@H](O)[C@@H](O)C=O [D-fucose] | 31 | only effective with GBP1 |  | 99 | only effective with GBP1 |  |  | 18 |  | 68 |  |  |  |  | 
6 | O=C[C@H](O)[C@@H](O)[C@@H](O)[C@H](O)CO [D-galactose] | 2 |  |  | 99 |  |  |  | 8 |  | 75 |  | only effective with GBP1 | only effective with GBP1 | ~95 | ~50
